Test results as given in patent US5986108A, “4-substitued-3-[1 or 2 amino acid residue]-azetidin-2-one derivatives useful as cysteine proteinase inhibitor” (Synphar Laboratories, Inc., priority 1997, dated 1999).
Like-named read-outs stand apart in the source and are kept apart here.

Assays:
Format in all cases: biochemical
Cathepsin B = Cathepsin B (Rattus norvegicus, UniProt P00787); assay: In vitro assay of inhibition of Cathepsin B (N-CBZ-Phe-Arg-AMC substrate)
Method: After 10 min of incubation at room temperature a 20 μl of 5 mM substrate (N-CBZ-Phe-Arg-AMC, dissolved in DMSO) was added to initiate reaction. Reading is followed up for 10 min at the Fluoroscan reader (excitation at 380 nm, emission at 460 nm).

Cathepsin L = Cathepsin L (Rattus norvegicus, UniProt P07154); assay: Assay of inhibition of Cathepsin L (N-CBZ-Phe-Arg-AMC substrate); conditions: r rat CathL, pH5.0, 10 min preincubation at room temperature; read-out: IC50, Cathepsin L
Cathepsin L, sequence (P07154 114-334): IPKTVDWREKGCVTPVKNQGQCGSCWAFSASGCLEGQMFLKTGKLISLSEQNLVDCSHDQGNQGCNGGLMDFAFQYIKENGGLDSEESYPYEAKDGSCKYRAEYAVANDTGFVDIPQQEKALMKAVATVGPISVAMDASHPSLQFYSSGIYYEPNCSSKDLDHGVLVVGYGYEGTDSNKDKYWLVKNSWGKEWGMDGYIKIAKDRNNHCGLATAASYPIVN
Method: After 10 min of incubation at room temperature a 20 μl of 1 mM substrate (N-CBZ-Phe-Arg-AMC, dissolved in DMSO) was added to initiate reaction. Reading is followed up for 10 min at the Fluoroscan reader (excitation at 380 nm, emission at 460 nm).

papain = molecular target: T1, papain (Carica papaya, UniProt P00784); assay: Assay of inhibition of papain (N-CBZ-Pro-Phe-Arg-pNA substrate)
T1 sequence (P00784 134-345): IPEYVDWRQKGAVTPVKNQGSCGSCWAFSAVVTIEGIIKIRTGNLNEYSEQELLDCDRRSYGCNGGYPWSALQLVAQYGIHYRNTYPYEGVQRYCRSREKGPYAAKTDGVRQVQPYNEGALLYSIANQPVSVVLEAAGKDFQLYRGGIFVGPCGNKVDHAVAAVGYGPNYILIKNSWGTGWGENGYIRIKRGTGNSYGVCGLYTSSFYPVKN
Method: To a 170 μl of enzyme-buffer mixture (enzyme:papain, diluted to give 30 mOD/min, buffer: 0.2M potassium phosphate, 1.0 mM EDTA, 5 mML Cysteine, pH6.5) a 10 μl of inhibitor (dissolved in DMSO) was added. After 10 min of incubation at room temperature, 20 μl of 10 mM substrate (N-CBZ-Pro-Phe-Arg-pNA, dissolved in DMSO) was added to initiate reaction. Reading is followed up for 3 min at the Thermomax plate reader(absorbance at 405 nm).
A plot of percentage of inhibition vs inhibitor concentration is obtained, and IC50 is determined using a linear regression calculations (concentration of inhibitor which will give 50% inhibition).

[1] = r rat CathB, pH5.1, 10 min preincubation at room temperature, read-out: IC50, Cathepsin B

Cathepsin B, sequence (P00787 80-339): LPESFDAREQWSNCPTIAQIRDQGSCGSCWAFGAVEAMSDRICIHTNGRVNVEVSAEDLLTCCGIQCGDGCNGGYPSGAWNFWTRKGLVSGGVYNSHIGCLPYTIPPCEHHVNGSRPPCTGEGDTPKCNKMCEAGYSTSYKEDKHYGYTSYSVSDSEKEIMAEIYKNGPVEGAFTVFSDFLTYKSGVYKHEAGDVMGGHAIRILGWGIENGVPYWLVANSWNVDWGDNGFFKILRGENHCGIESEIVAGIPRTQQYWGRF

| SMILES | IC50 (Cathepsin B; [1]) [nM] | IC50 (Cathepsin L) [nM] | IC50 (papain) [nM] | IC50 (Cathepsin B) [nM] | IC50 (papain; pH6.5, 10 min preincubation at room temperature, read-out: IC50, Papain) [nM] |
| --- | --- | --- | --- | --- | --- |
| N[C@@H](Cc1ccc(O[C@@H]2NC(=O)[C@H]2NC(=O)[C@H](Cc2ccccc2)NC(=O)CCc2ccccc2)cc1)C(=O)O [Example 29B, (3S,4S)-3-{N-(3-phenylpropionoyl)-L-phenylalanyl}-amino-4-{4-(L-2-amino-2-carboxy-ethyl)-phenoxy}-azetidin-2-one] | > 46000 | 292 | 368 | – | – |
| CC(=O)N[C@@H](CC(C)C)C(=O)N[C@@H](CC(C)C)C(=O)N[C@H](C=O)CCCNC(=N)N [Leupeptin, reference compound] | – | 8 | – | 13 | 12 |
| CC(=O)O[C@@H]1NC(=O)[C@H]1NC(=O)[C@H](C)NC(=O)OCc1ccccc1 [Example 33, (3S,4S)-3-(N-benzyloxycarbonyl-L-alanyl)-amino-4-acetoxy-azetidin-2-one] | 14300 | 35900 | 7030 | – | – |
